Results on 86 compounds are retold here after PubChem BioAssay AID1645866 (Buhrlage Lab, Dana-Farber Cancer Institute and Novartis …, 2021).

Activity calls are given as the source filed them.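 Rule for the calls: active = in confirmatory dose-response testing, peak deubiquitinase inhibition of 30% or more; inactive = the rest.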

Ubiquitin carboxyl-terminal hydrolase 28 (Homo sapiens), sequence (Q96RU2 whole entry, looked up): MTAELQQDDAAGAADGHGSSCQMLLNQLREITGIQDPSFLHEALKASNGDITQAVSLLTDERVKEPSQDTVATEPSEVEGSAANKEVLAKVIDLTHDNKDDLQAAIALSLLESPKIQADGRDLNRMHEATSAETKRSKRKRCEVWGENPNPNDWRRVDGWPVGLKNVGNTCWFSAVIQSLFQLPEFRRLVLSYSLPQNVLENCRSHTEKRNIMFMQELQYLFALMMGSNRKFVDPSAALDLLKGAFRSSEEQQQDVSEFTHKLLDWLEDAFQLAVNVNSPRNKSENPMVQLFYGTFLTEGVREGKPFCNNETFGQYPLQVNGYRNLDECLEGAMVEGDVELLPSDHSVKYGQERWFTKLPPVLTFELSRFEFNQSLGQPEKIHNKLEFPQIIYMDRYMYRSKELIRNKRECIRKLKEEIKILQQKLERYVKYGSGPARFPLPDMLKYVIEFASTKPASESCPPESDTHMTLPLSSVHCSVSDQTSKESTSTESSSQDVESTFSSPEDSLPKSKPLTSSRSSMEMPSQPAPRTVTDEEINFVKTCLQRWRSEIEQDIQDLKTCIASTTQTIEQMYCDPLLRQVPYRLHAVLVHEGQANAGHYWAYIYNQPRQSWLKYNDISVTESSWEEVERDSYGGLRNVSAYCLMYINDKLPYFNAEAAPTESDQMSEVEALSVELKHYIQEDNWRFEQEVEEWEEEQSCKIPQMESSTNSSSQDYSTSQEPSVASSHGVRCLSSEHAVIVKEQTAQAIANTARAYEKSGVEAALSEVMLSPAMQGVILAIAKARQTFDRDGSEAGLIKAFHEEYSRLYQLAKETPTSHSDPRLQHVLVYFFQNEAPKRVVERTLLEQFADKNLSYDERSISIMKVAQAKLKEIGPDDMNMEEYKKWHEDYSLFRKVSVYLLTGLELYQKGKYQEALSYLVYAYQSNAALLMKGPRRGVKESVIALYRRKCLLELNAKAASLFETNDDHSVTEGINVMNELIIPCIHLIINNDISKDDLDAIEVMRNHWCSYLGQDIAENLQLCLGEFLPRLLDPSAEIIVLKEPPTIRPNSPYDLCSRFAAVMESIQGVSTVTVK

The assay addresses Ubiquitin carboxyl-terminal hydrolase 28 (Homo sapiens) (UniProt Q96RU2). As to the kind of experiment: Ubiquitin-specific peptidase 28 DUB inhibitors, biochemical concentration-dependence assay, validation of primary screening hits (AID 1645866). The note with it: purified USP28, ubiquitin-rhodamine fluorescence, 30 min.
Turning to `O=C(c1cc(-c2ccc(Cl)cc2)n[nH]1)N1CCN(C(=O)c2ccco2)CC1`, the IC50 is 25.8 µM.
With `COc1ccc(NC(=O)C2Oc3ccc(C)cc3NC2=O)cc1Cl` (stereo unspecified), the IC50 is 19.5 µM.
For `O=C(Nc1ccc2c(c1)N(C(=O)C1CCCC1)CC2)c1c(F)cccc1F`, the IC50 is 0.15 µM.
Regarding `O=C(NCc1ccc(F)cc1)C1CCCN(c2cnc3nccnc3c2)C1` (stereo unspecified), the IC50 is > 50 µM (inactive).
Take `Cc1ccc(NC(=O)Cc2nnc3c(-c4nc(C5CC5)no4)cccn23)cc1`: the IC50 is 3.53 µM.
As to `COc1ccc(CCNC(=O)c2cc3ccccc3s2)cc1OC`, the IC50 is 2.07 µM.
The result for `Cc1ccc(Cn2nnc(-c3noc(-c4ccc[nH]4)n3)c2C)cc1` reads 11.6 µM; that for `COc1ccc(CN=C2NS(=O)(=O)C(c3ccc(F)cc3)=C2C)cc1OC`, 23 µM.
With `O=C(CNC(=O)c1cccc(F)c1)Nc1nc2ccccc2[nH]1` the figure was 24.5 µM; with `COc1ccc(-c2cc3nc([C@H](C)NC(=O)Cc4cccc(F)c4)nn3cn2)cc1`, 13 µM; with `COc1ccc(NC(=O)c2nnc(C(=O)NCCN3CCCCCC3)s2)cc1`, 12.2 µM.
The result for `COCCCNC(=O)c1ccc(Cn2c(=O)c3ccccc3n(CC(=O)NC3CCCCC3)c2=O)cc1` reads 23.5 µM.
As to `CC(OC(=O)c1cn(-c2ccccc2)nc1-c1cccnc1)C(=O)Nc1cccc(S(=O)(=O)N(C)C)c1` (stereo unspecified), the IC50 was 30.9 µM.
With `CCc1ccc(NC(=O)CN=C2NS(=O)(=O)C(c3ccc(CC)cc3)=C2C)cc1` the figure was 21.7 µM; with `CC[C@H](C)C[C@H]1CC[C@](O)([C@](C)(O)C(=O)N[C@@H]2C(=O)N3NCCC[C@@H]3C(=O)N(O)[C@@H](C)C(=O)NCC(=O)N3NCCC[C@H]3C(=O)N(O)[C@H](C)C(=O)O[C@H]2C(C)C)O[C@@H]1C`, 1.52 µM.
As to `Cc1csc2ncc(C(=O)N3CCN(c4ccccc4F)CC3)c(=O)n12`, the IC50 was > 50 µM (inactive).
The result for `O=C(Nc1ccccc1)c1nc(-c2cn(Cc3ccc(F)cc3)nn2)no1` reads 21 µM.
With `Cc1c(C(=O)c2ccccc2)c2ccccn2c1CCc1ccccn1` the figure was > 50 µM (inactive).
Take `Cc1ccc(NC(=O)CNC(=O)c2cc3ccccc3o2)cc1`: the IC50 was 21.2 µM.
For `CCc1ccc(NC(=O)COc2cccc(-n3cnnn3)c2)cc1`, the IC50 is 25 µM.
For `CC(=O)Nc1ccc(S(=O)(=O)NCc2ccc(C(=O)NCc3ccc(C)cc3)cc2)cc1`, the IC50 is 19.2 µM.
As to `O=C1Cc2ccccc2C(=O)N1c1ccc2c(c1)OCO2`, the IC50 was 24.3 µM.
Regarding `Cc1ccccc1C(=O)Nc1ccc(Cc2ccc(NC(=O)c3ccccc3C)c(O)c2)cc1O`, the IC50 was 43.7 µM.
The result for `Cc1cnc2nc3c(cc2c1)CN(S(=O)(=O)c1cc(F)ccc1C)CC3` reads > 50 µM (inactive).
In the case of `O=C(CN1C(=O)NC2(CCCCC2)C1=O)Nc1ccc([N+](=O)[O-])cc1`, the IC50 is 33.2 µM.
For `COc1ccc2cc3c(nc2c1)OC(=O)N(CCc1cccc(F)c1)C3`, the IC50 is 0.233 µM.
`O=C(CSc1nnnn1-c1ccccc1)Nc1ccccc1`: the IC50 is 39.8 µM.
`COc1ccc(Nc2nc(C(=O)NCc3ccc4c(c3)OCO4)cc3occc23)cc1`: the IC50 was 4.91 µM.
Consider `Cc1ccc(C2c3c(-c4ccccc4O)n[nH]c3C(=O)N2Cc2ccco2)cc1` (stereo unspecified), for which the IC50 is 20 µM.
Regarding `Cc1cc(O)c2c3c(c(O)cc2c1)C(=O)c1c(O)cccc1C3=O`, the IC50 is 1.89 µM.
As for `COc1ccc(OC)c(NC(=O)c2cc(Cl)ccc2OC)c1`, the concentration for half-maximal inhibition (IC50) is 1.66 µM.
In the case of `O=C(NCc1ccc2c(c1)OCO2)c1cc2c(s1)-c1ccccc1OC2`, the IC50 is 7.07 µM.
As for `CCOC(=O)c1c(C)oc2nc(CSc3ccccc3)[nH]c(=O)c12`, the IC50 is 17 µM.
The result for `O=C(NC1CCCC1)C1CC(=O)N(c2cccc(-c3noc(-c4cccs4)n3)c2)C1` (stereo unspecified) reads 35.9 µM; that for `Cc1ccccc1Cc1nc(-c2ccc(=O)[nH]c2)no1`, 0.946 µM; that for `Cc1cccc(-n2cnc(C(=O)NCc3ccc(F)cc3)c2)n1`, 35.6 µM.
For the compound `COc1cc(C)c2c(=O)c3c(oc2c1)C(=O)c1c(O)c(OC)cc(O)c1C3=O`, the IC50 was 1.56 µM.
With `O=C(CCc1nnc2n(Cc3ccc(F)cc3)c(=O)c3ccccc3n12)N1CCN(c2ccccn2)CC1` the figure was > 50 µM (inactive); with `O=[N+]([O-])c1cccc(-c2noc(CSc3ccccc3)n2)c1`, 3.72 µM; with `Nc1c(C(=O)c2cccs2)oc2nc(-c3ccccc3)cc(-c3ccco3)c12`, > 50 µM (inactive).
Turning to `O=C(NCC1CC1)C1CCCN(c2ccc(-c3ccccc3)nn2)C1` (stereo unspecified), the IC50 is > 50 µM (inactive).
On to `O=C(NCc1ccc2c(c1)OCO2)c1nn(C23CC4CC(CC(C4)C2)C3)cc1[N+](=O)[O-]`, for which the IC50 was > 50 µM (inactive).
With `Cc1cc(N2CCC(NC(=O)NCc3ccc(F)cc3)C2=O)ccc1F` (stereo unspecified), the IC50 is 15 µM.
As for `Cc1cc(C(=O)N2CCN(C3CCN(Cc4ccc(Cl)o4)CC3)C(=O)C2)c(C)o1`, the IC50 is > 50 µM (inactive).
For the compound `CCN(CCCNC(=O)c1ccc(Cn2c(=O)[nH]c3ccccc3c2=O)cc1)c1ccccc1`, the IC50 is 13.6 µM.
In the case of `Cc1ccc2[nH]c(=O)c(CN(Cc3cccnc3)C(=O)c3cccc(Cl)c3)cc2c1`, the IC50 was > 50 µM (inactive).
Take `CCOC(=O)C1C(c2ccc(Br)cc2)C2(C(=O)c3ccccc3C2=O)C2C=Cc3ccccc3N12` (stereo unspecified): the IC50 is > 50 µM (inactive).
Consider `Cc1nnc(C(=O)Nc2ccc(C(=O)NCc3ccccc3C)cc2)s1`, for which the IC50 is 16.2 µM.
The result for `CCCCCCCCCC(CCCCCCCCCC(=O)O)O[C@H]1O[C@@H](COC(C)=O)[C@H](O)[C@@H](O)[C@H]1OC(=O)CC(=O)O` (stereo partly specified) reads 18.4 µM.
With `COc1ccc(/C=C/C(=O)Nc2cccc(S(=O)(=O)Nc3ccccc3Cl)c2)c(OC)c1`, the IC50 is 21.4 µM.
Consider `COc1ccc(C(=O)CSc2nnc(-c3cccnc3)n2-c2ccccc2)cc1`, for which the IC50 was > 50 µM (inactive).
Consider `O=C1CC(O)C(C2=CC(=O)c3c(O)cccc3C2=O)O1` (stereo unspecified), for which the IC50 was 1.91 µM.
For the compound `Cc1ccc(C)c(Cn2nnc3c(=O)[nH]c(C4CCN(S(=O)(=O)c5ccc(S(=O)(=O)NC6CC6)cc5)CC4)nc32)c1`, the IC50 is 9.09 µM.
In the case of `CCc1cc(=O)n(CC(=O)Nc2cc(C)ccc2OC)c(N2CCOCC2)n1`, the IC50 was 26.2 µM.
The result for `CSc1ccc(CNCc2c(C(=O)O)n(Cc3ccccc3)c3cc(C)ccc23)cc1` reads > 5 µM (inactive); that for `Cc1cccc(NC(=O)Nc2ccc(C)n(CC(=O)Nc3ccccc3)c2=O)c1`, 4.73 µM.
In the case of `CC1(C)CC(n2[nH]c(=O)c3c2NC(=O)CSC3c2ccc(OCc3ccccc3)cc2)CCO1` (stereo unspecified), the IC50 is 17.7 µM.
Take `O=S1(=O)CCN(CC2CCCO2)c2c(Oc3ccccc3)nc(F)c(Cl)c21` (stereo unspecified): the IC50 is > 50 µM (inactive).
Take `N#Cc1ccccc1Cn1c(=O)n(Cc2ccco2)c(=O)c2ccccc21`: the IC50 was 7.54 µM.
On to `O=C(CCCn1c(=O)c2ccccc2n(CC(=O)NCc2ccccc2Cl)c1=O)NCc1ccc2c(c1)OCO2`, for which the IC50 is 1.94 µM.
With `O=C(NCCCN1CCc2ccccc2C1)c1cc2c(s1)CS(=O)(=O)C2` the figure was > 50 µM (inactive); with `O=C(Nc1ccccc1-c1nc2ccccc2[nH]1)c1sc2ccccc2c1Cl`, 2.04 µM; with `COc1ccc(CCNC(=O)COc2ncnc3oc(C)c(C)c23)cc1OC`, > 50 µM (inactive).
For `Cc1nc(C(=O)Nc2cccc(Cl)c2Cl)nn1-c1cc(Cl)cc(Cl)c1`, the IC50 was 0.163 µM.
As to `COC(=O)c1c(C)[nH]c(C(=O)C(C)OC(=O)CCC2CCCC2)c1C` (stereo unspecified), the IC50 is 1.47 µM.
For the compound `O=C(c1ccc(Cl)cc1)c1c[nH]cc1-c1c(F)cccc1Cl`, the IC50 is 33.1 µM.
The result for `Cc1ccn(-c2ccc(NC(=O)c3ccccc3Sc3ccccc3C#N)cc2)n1` reads 36.1 µM; that for `Cc1cc(C)n(-c2ccc(C(=O)NCc3ccc(F)cc3)cn2)n1`, 19.7 µM; that for `CC1(C(=O)NC2CCCC2)Cn2c(cc3ccccc32)C(=O)N1c1ccc(F)cc1` (stereo unspecified), 21.3 µM.
For `COc1cc(OC)cc(-n2c(=O)c3sccc3n(CC(=O)Nc3ccc(C)cc3)c2=O)c1`, the IC50 is 6.98 µM.
With `CC1CC(=O)Nc2ccccc2N1S(=O)(=O)c1ccc(C#N)cc1` (stereo unspecified), the IC50 was 33.1 µM.
`N#Cc1c(-c2cccs2)cc(-c2cccs2)[nH]c1=O`: the IC50 was > 50 µM (inactive).
As for `Cn1c(=O)[nH]c(=O)c2c1nc1n(CCc3ccccc3)c(-c3ccccc3)cn21`, the IC50 is 42.2 µM.
As for `Cc1noc(-c2cccc(=O)n2CC(=O)Nc2ccc(C)c(C)c2)n1`, the IC50 is 17.4 µM.
As for `CCOC(=O)c1cc2c(ccn2C)n1Cc1cccc2ccccc12`, the IC50 was > 50 µM (inactive).
Take `O=C(COc1ccc(Cl)cc1)NCc1nnc(SCC(=O)NCc2ccc3c(c2)OCO3)o1`: the IC50 is 28.4 µM.
Take `CC1CC[C@]2(NC1)O[C@H]1C[C@H]3[C@@H]4CC[C@H]5C[C@@H](O[C@@H]6O[C@H](CO)[C@H](O[C@@H]7O[C@H](CO)[C@@H](O)[C@H](O[C@@H]8OC[C@@H](O)[C@H](O)[C@H]8O)[C@H]7O[C@@H]7O[C@H](CO)[C@@H](O)[C@H](O)[C@H]7O)[C@H](O)[C@H]6O)CC[C@]5(C)[C@H]4CC[C@]3(C)[C@H]1[C@@H]2C` (stereo partly specified): the IC50 is 30.5 µM.
On to `COc1ccc(CNC(=O)c2[nH]nc3c2CCc2ccccc2-3)cc1`, for which the IC50 is 36.1 µM.
On to `CN(Cc1ccccc1)S(=O)(=O)c1ccc2[nH]cc(C(=O)NCc3cccs3)c(=O)c2c1`, for which the IC50 was 1.52 µM.
Consider `CC1=C(C)C(c2c(-c3ccc(C)cc3)[nH]c3ccccc23)N(C(C)(C)C)C1=O` (stereo unspecified), for which the IC50 is 2.25 µM.
For the compound `CC1CCc2sc(NC(=O)c3ccccc3Oc3ccccc3)c(C(N)=O)c2C1` (stereo unspecified), the IC50 is 15.2 µM.
For `COc1cc(Cl)c(C)cc1NC(=O)Cn1c(=O)n(CC(=O)NCc2ccco2)c(=O)c2ccccc21`, the IC50 is 3.4 µM.
`COc1ccccc1CC(=O)Nc1nc2ccccc2[nH]1`: the half-inhibitory concentration (IC50) was 37.1 µM.
Regarding `COc1cccc(/C=C/C(=O)Nc2ccc(N3CCOCC3)cc2)c1OC`, the IC50 is 2.32 µM.
With `CCOc1cccc(NC(=O)c2ccc(S(=O)(=O)N3CCc4ccccc4C3)cc2)c1`, the IC50 is 44.3 µM.
The result for `Cc1ccccc1Cn1ccc2ccn(Cc3cccnc3)c2c1=O` reads 10.4 µM.
